Laboratory results as given in patent US20070117858A1, “SUBSTITUTED 5-HETEROARYL-1-PHENYL-PYRAZOLE CANNABINOID MODULATORS” (priority 2005, published 2007).

Assays:
[1] = target: T1, human CB1 receptor (Homo sapiens, UniProt P21554); test: Cannabinoid CB1 receptor binding assay ([3H]-CP-55,940 displacement, SK-N-MC cell membranes); conditions: for inhibition at 0.2 µM: 1.5 h, read-out: Cannabinoid CB1 Receptor Binding, percent inhibition
T1 construct: expressed in transfected cells; host or cells: SK-N-MC cells, stably transfected with pcDNA3 CB-1 (human); semi-purified membrane pellet
Protocol: (§1) Binding Assay for CB1 or CB2 Agonists or Inverse Agonists
(§2) The human CB1 and CB2 receptors were stably expressed in SK-N-MC cells transfected with pcDNA3 CB-1 (human) or pcDNA3 CB-2 (human). The cells were grown in T-180 cell culture flasks under standard cell culture conditions at 37° C. in a 5% CO2 atmosphere. The cells were harvested by trysinization and homogenized in a homogenization buffer (10 mM Tris, 0.2 mM MgCl2, 5 mM KCl, with protease inhibitors aprotinin, leupeptin, pepstatin A and bacitracin) and centrifuged (2000 g). The supernatant was then centrifuged in 2M sucrose (31,300 g) to produce a semi-purified membrane pellet. The pellet was resuspended in homogenization and stored at −80° C.
(§3) On the day of the assay, the pellet was thawed on ice and diluted in assay buffer (50 mM Tris-HCl, 5 mM MgCl2, 2.5 mM EDTA, 0.5 mg/mL fatty acid free bovine serum albumin, pH 7.5). The diluted membrane pellet was added with buffer, either a test compound or vehicle standard and the radioligand […] (0.2 nM) to the wells of a 96-well polypropylene plate. Non-specific binding was measured in wells containing W1N 55,212 (10 uM). The plate was covered and incubated for 90 minutes at 30° C. The contents were then aspirated onto a Packard Unifilter GF/C filter bottom plate prewet with 0.5% polyethyleneimine. The wells of the polypropylene plate were rinsed and aspirated seven times with a 0.9% saline-0.5% Tween 20 solution. The Unifilter plate was dried, scintillation cocktail was added to each well and the counts representing binding were quantitated in a TopCount scintillation counter.
(§4) For compounds tested, an IC50 binding value was obtained from percent inhibition studies in which various test concentrations were used. The binding value was calculated by linear regression.
(§5) For compounds without an IC50 binding value, the percent inhibition (%) was obtained at a test concentration of 0.2 μM.

[2] = target: T2, human CB2 receptor (Homo sapiens, UniProt P34972); test: Cannabinoid CB2 receptor binding assay ([3H]-CP-55,940 displacement, SK-N-MC cell membranes); conditions: 1.5 h; test concentration of 0.2 μM; radioligand CP-55,940 0.2 nM; read-out: Cannabinoid CB2 Receptor Binding, percent inhibition
T2 construct: expressed in transfected cells; host or cells: SK-N-MC cells, stably transfected with pcDNA3 CB-2 (human); semi-purified membrane pellet
Protocol: as §1, §2, §3, §4, §5

T1 sequence (P21554 whole entry): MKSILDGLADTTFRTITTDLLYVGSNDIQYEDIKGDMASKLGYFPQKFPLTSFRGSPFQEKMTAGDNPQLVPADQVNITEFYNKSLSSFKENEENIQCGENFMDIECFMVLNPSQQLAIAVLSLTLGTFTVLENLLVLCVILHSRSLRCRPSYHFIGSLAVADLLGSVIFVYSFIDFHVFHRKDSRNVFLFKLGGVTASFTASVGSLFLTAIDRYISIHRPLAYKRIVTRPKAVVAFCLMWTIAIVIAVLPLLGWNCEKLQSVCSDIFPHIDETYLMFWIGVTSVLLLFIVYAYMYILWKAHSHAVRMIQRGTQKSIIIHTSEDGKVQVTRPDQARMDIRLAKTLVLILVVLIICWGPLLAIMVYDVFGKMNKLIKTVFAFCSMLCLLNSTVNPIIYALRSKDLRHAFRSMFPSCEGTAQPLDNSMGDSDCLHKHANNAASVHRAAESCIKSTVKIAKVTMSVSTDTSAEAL
T2 sequence (P34972 whole entry): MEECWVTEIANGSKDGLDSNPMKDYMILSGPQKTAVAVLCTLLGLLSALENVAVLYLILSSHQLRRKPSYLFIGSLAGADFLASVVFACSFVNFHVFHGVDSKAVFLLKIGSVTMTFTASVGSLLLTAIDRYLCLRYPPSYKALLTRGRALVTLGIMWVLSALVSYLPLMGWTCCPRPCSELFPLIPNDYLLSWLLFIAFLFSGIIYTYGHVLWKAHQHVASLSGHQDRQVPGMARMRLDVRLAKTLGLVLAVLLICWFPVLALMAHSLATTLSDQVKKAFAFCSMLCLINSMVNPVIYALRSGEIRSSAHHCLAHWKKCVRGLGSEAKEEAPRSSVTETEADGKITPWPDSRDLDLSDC

| SMILES | inhibition at 0.2 µM [1] [%] | inhibition at 0.2 µM [2] [%] | IC50 [1] [nM] |
| --- | --- | --- | --- |
| Cc1c(C(=O)NN2CCCCC2)nn(-c2ccc(Cl)cc2Cl)c1-c1cccs1 [Cpd 10, 1-(2,4-dichloro-phenyl)-4-methyl-5-thiophen-2-yl-1H-pyrazole-3-carboxylic acid piperidin-1-ylamide] | 37 | 6 |  |
| Cc1c(C(=O)NN2CC3CCCC3C2)nn(-c2ccc(Cl)cc2Cl)c1-c1cccs1 (stereo not shown) [Cpd 11, 1-(2,4-dichloro-phenyl)-4-methyl-5-thiophen-2-yl-1H-pyrazole-3-carboxylic acid (hexahydro-cyclopenta[c]pyrrol-2-yl)-amide] | 53 | 0 |  |
| Cc1c(C(=O)N[C@@H](C)C2CCCCC2)nn(-c2ccc(Cl)cc2Cl)c1-c1ccc(Cl)s1 [Cpd 12, 5-(5-chloro-thiophen-2-yl)-1-(2,4-dichloro-phenyl)-4-methyl-1H-pyrazole-3-carboxylic acid [(1S)-1-cyclohexyl-ethyl]-amide] |  | 40 | 15 |
| Cc1c(C(=O)N[C@H](C)C2CCCCC2)nn(-c2ccc(Cl)cc2Cl)c1-c1ccc(Cl)s1 [Cpd 13, 5-(5-chloro-thiophen-2-yl)-1-(2,4-dichloro-phenyl)-4-methyl-1H-pyrazole-3-carboxylic acid [(1R)-1-cyclohexyl-ethyl]-amide] |  | 37 | 74 |
| Cc1c(C(=O)N[C@H](C)c2ccccc2)nn(-c2ccc(Cl)cc2Cl)c1-c1ccc(Cl)s1 [Cpd 14, 5-(5-chloro-thiophen-2-yl)-1-(2,4-dichloro-phenyl)-4-methyl-1H-pyrazole-3-carboxylic acid [(1R)-1-phenyl-ethyl]-amide] |  | 40 | 27 |
| CCc1c(C(=O)NN2CCCCC2)nn(-c2ccc(Cl)cc2Cl)c1-c1ccc(Cl)s1 [Cpd 15, 5-(5-chloro-thiophen-2-yl)-1-(2,4-dichloro-phenyl)-4-ethyl-1H-pyrazole-3-carboxylic acid piperidin-1-ylamide] |  | 29 | 12 |
| C[C@@H](NC(=O)c1nn(-c2ccc(Cl)cc2Cl)c(-c2cccs2)c1C#N)c1ccccc1 [Cpd 16, 4-cyano-1-(2,4-dichloro-phenyl)-5-thiophen-2-yl-1H-pyrazole-3-carboxylic acid [(1R)-1-phenyl-ethyl]-amide] | 61 | 17 |  |
| C[C@@H](NC(=O)c1nn(-c2ccc(Cl)cc2Cl)c(-c2cccs2)c1C#N)c1ccccn1 [Cpd 17, 4-cyano-1-(2,4-dichloro-phenyl)-5-thiophen-2-yl-1H-pyrazole-3-carboxylic acid [(1R)-1-pyridin-2-yl-ethyl]-amide] | 25 | 14 |  |
| C[C@@H](NC(=O)c1nn(-c2ccc(Cl)cc2Cl)c(-c2cccs2)c1C#N)C1CCCCC1 [Cpd 18, 4-cyano-1-(2,4-dichloro-phenyl)-5-thiophen-2-yl-1H-pyrazole-3-carboxylic acid [(1R)-1-cyclohexyl-ethyl]-amide] | 66 | 21 |  |
| C[C@H](NC(=O)c1nn(-c2ccc(Cl)cc2Cl)c(-c2cccs2)c1C#N)c1ccccc1 [Cpd 19, 4-cyano-1-(2,4-dichloro-phenyl)-5-thiophen-2-yl-1H-pyrazole-3-carboxylic acid [(1S)-1-phenyl-ethyl]-amide] | 45 | 24 |  |
| N#Cc1c(C(=O)NN2CCCCC2)nn(-c2ccc(Cl)cc2Cl)c1-c1cccs1 [Cpd 20, 4-cyano-1-(2,4-dichloro-phenyl)-5-thiophen-2-yl-1H-pyrazole-3-carboxylic acid piperidin-1-ylamide] | 37 | 9 |  |
| N#Cc1c(C(=O)N2CCCCC2)nn(-c2ccc(Cl)cc2Cl)c1-c1cccs1 [Cpd 21, 1-(2,4-dichloro-phenyl)-3-(piperidine-1-carbonyl)-5-thiophen-2-yl-1H-pyrazole-4-carbonitrile] | 12 | 3 |  |
| Cc1c(C(=O)NN2CCCCC2)nn(-c2ccc(Cl)cc2Cl)c1-c1ccc(Br)s1 [Cpd 22, 5-(5-bromo-thiophen-2-yl)-1-(2,4-dichloro-phenyl)-4-methyl-1H-pyrazole-3-carboxylic acid piperidin-1-ylamide] |  | 42 | 37 |
| N#Cc1c(C(=O)NN2CCCCC2)nn(-c2ccc(Cl)cc2Cl)c1-c1ccc(Cl)s1 [Cpd 23, 5-(5-chloro-thiophen-2-yl)-4-cyano-1-(2,4-dichloro-phenyl)-1H-pyrazole-3-carboxylic acid piperidin-1-ylamide] |  | 22 | 71 |
| C[C@@H](NC(=O)c1nn(-c2ccc(Cl)cc2Cl)c(-c2ccc(Cl)s2)c1C#N)C1CCCCC1 [Cpd 24, 5-(5-chloro-thiophen-2-yl)-4-cyano-1-(2,4-dichloro-phenyl)-1H-pyrazole-3-carboxylic acid [(1R)-1-cyclohexyl-ethyl]-amide] |  | 13 | 15 |
| C[C@@H](NC(=O)c1nn(-c2ccc(Cl)cc2Cl)c(-c2ccc(Cl)s2)c1C#N)c1ccccc1 [Cpd 25, 5-(5-chloro-thiophen-2-yl)-4-cyano-1-(2,4-dichloro-phenyl)-1H-pyrazole-3-carboxylic acid [(1R)-1-phenyl-ethyl]-amide] |  | 13 | 16 |
| C[C@H](NC(=O)c1nn(-c2ccc(Cl)cc2Cl)c(-c2ccc(Cl)s2)c1C#N)c1ccccc1 [Cpd 26, 5-(5-chloro-thiophen-2-yl)-4-cyano-1-(2,4-dichloro-phenyl)-1H-pyrazole-3-carboxylic acid [(1S)-1-phenyl-ethyl]-amide] |  | 16 | 110 |
| C[C@@H](NC(=O)c1nn(-c2ccc(Cl)cc2Cl)c(-c2ccc(Cl)s2)c1C#N)c1ccccn1 [Cpd 27, 5-(5-chloro-thiophen-2-yl)-4-cyano-1-(2,4-dichloro-phenyl)-1H-pyrazole-3-carboxylic acid [(1R)-1-pyridin-2-yl-ethyl]-amide] | 69 | 12 |  |
| Cc1c(C(=O)NN2CCCCC2)nn(-c2ccc(Cl)cc2Cl)c1-c1ccc(F)s1 [Cpd 28, 1-(2,4-dichloro-phenyl)-5-(5-fluoro-thiophen-2-yl)-4-methyl-1H-pyrazole-3-carboxylic acid piperidin-1-ylamide] | 69 | 20 |  |
| Cc1c(C(=O)NN2CCCCC2)nn(-c2ccc(Cl)cc2Cl)c1-c1ccc(I)s1 [Cpd 29, 1-(2,4-dichloro-phenyl)-5-(5-iodo-thiophen-2-yl)-4-methyl-1H-pyrazole-3-carboxylic acid piperidin-1-ylamide] |  | 55 | 17 |
| Cc1c(C(=O)NN2CCCCC2=O)nn(-c2ccc(Cl)cc2Cl)c1-c1ccc(Cl)s1 [Cpd 30, 5-(5-chloro-thiophen-2-yl)-1-(2,4-dichloro-phenyl)-4-methyl-1H-pyrazole-3-carboxylic acid (2-oxo-piperidin-1-yl)-amide] | 17 | 15 |  |
| Cc1c(C(=O)N[C@@H](C)c2ccccc2)nn(-c2ccc(Cl)cc2Cl)c1-c1ccc(F)s1 [Cpd 31, 1-(2,4-dichloro-phenyl)-5-(5-fluoro-thiophen-2-yl)-4-methyl-1H-pyrazole-3-carboxylic acid [(1S)-1-phenyl-ethyl]-amide] | 64 | 39 |  |
| Cc1c(C(=O)N[C@H](C)c2ccccc2)nn(-c2ccc(Cl)cc2Cl)c1-c1ccc(F)s1 [Cpd 32, 1-(2,4-dichloro-phenyl)-5-(5-fluoro-thiophen-2-yl)-4-methyl-1H-pyrazole-3-carboxylic acid [(1R)-1-phenyl-ethyl]-amide] |  | 55 | 46 |
| Cc1c(C(=O)N[C@@H](C)C2CCCCC2)nn(-c2ccc(Cl)cc2Cl)c1-c1ccc(F)s1 [Cpd 33, 1-(2,4-dichloro-phenyl)-5-(5-fluoro-thiophen-2-yl)-4-methyl-1H-pyrazole-3-carboxylic acid [(1S)-1-cyclohexyl-ethyl]-amide] | 73 | 41 |  |
| Cc1c(C(=O)N[C@@H](C)c2ccccn2)nn(-c2ccc(Cl)cc2Cl)c1-c1ccc(F)s1 [Cpd 34, 1-(2,4-dichloro-phenyl)-5-(5-fluoro-thiophen-2-yl)-4-methyl-1H-pyrazole-3-carboxylic acid [(1S)-1-pyridin-2-yl-ethyl]-amide] | 61 | 34 |  |
| CCc1c(C(=O)NN2CCCCC2)nn(-c2ccc(Cl)cc2Cl)c1-c1ccc(Br)s1 [Cpd 35, 5-(5-bromo-thiophen-2-yl)-1-(2,4-dichloro-phenyl)-4-ethyl-1H-pyrazole-3-carboxylic acid piperidin-1-ylamide] |  | 29 | 13 |
